From ChEMBL document CHEMBL1157539, “Thousands of chemical starting points for antimalarial lead identification” (Nature, 2010) come the findings set out here.

The experiment relates to Plasmodium falciparum. The experiment is described as follows: GSK_TCMDC: Inhibition of Plasmodium falciparum 3D7 in whole erythrocytes, using parasite LDH activity as an index of growth. Format: functional, organism-based. Conditions: Plasmodium falciparum, 3D7.
Take `CCCC(C)N(Cc1ccc(C(C)(C)C)cc1)C(=O)c1ccc(OC)cc1` (configuration not stated): the XC50 was found to be 0.111 µM. `COc1cccc(-n2ncc3c(N/N=C/c4ccc(CN(C)CCN(C)C)cc4)ncnc32)c1` had an XC50 of 0.893 µM. To `CCOC(=O)c1ccc(NC(=O)Nc2cccc(-c3ccc(-c4nc5cc(C(F)(F)F)ccc5[nH]4)cc3)c2)cc1` belongs 0.212 µM; to `O=C(CCCCCNC(=O)c1ccc(O)c(-c2ccc(Cl)c(Cl)c2)c1)NC1CCCCCC1`, 0.947 µM. The result for `Cc1ccnc(NC(=O)c2cc(-c3cccc([N+](=O)[O-])c3)nc3onc(C)c23)c1` reads 0.888 µM; that for `c1ccc(Oc2ccc(Nc3ccnc4c(-c5ccccn5)cccc34)cc2)cc1`, 0.987 µM; that for `CCCCNC[C@@H](O)[C@H](Cc1ccccc1)NC(=O)c1cc2c3c(c1)c(CC)cn3CCS(=O)(=O)N2C`, 0.196 µM. The result for `COc1cc2c(cc1S(=O)(=O)c1ccc(NC(=O)c3cc4ccccc4s3)cc1)CCN(C)CC2` reads 0.837 µM; that for `Oc1ccccc1CCNCC1CCc2ccccc2C1` (configuration not stated), 0.689 µM; that for `O=C(Cc1ccc(Cl)cc1)Nc1cc(Cl)ccc1Cn1cnc(N2CCNCC2)cc1=O`, 0.998 µM. In the case of `N=C(N)NCCCN(Cc1ccccc1)c1ccc(Cl)cc1`, the XC50 worked out at 0.564 µM.

Take `Cc1[nH]c(C)c(-c2ccc(-c3ccccc3)nc2)c(=O)c1Br`: the XC50 was found to be 0.661 µM. To `O=C(Nc1ccc(-c2nc3ccccc3[nH]2)cc1)c1ccc(S(=O)(=O)N2CCCCC2)cc1` belongs 0.749 µM; to `O=C(NCC1CCN(Cc2ccsc2)C1)c1cc(-c2cccc(C(F)(F)F)c2)cs1` (configuration not stated), 0.7 µM; to `CCN(CC)CCCC(C)Nc1ccnc2[nH]c3ccccc3c12` (configuration not stated), 1.77 µM. To `O=C(c1cc(-c2ccco2)n[nH]1)N1CCN(S(=O)(=O)c2ccc(Br)cc2)CC1` belongs 0.497 µM; to `Fc1cccc(Nc2nc(NCc3ccc(OCc4ccccc4)cc3)nc(Nc3cccc(F)c3)n2)c1`, 1.18 µM. The result for `c1ccc(CN2CCC(NCc3ccc(-c4ccc(CNCc5cccnc5)cn4)cc3)CC2)cc1` reads 0.879 µM; that for `O=C(NCC1CCN(CC2CCCCC2)C1)c1cc(-c2cccc(Cl)c2)cs1` (configuration not stated), 1.09 µM.

With `OC1CCCN(Cc2ccc(-c3cccc(-c4nc5cc(F)ccc5[nH]4)c3)cc2)C1` (configuration not stated), the XC50 was determined as 0.868 µM.

`CCn1c(-c2nc(-c3ccnc(N4CCN(C)CC4)c3)cnc2N)nc2cc(S(C)(=O)=O)ccc21` had an XC50 of 0.815 µM. Turning to `O=C(/C=C/c1ccc(Cl)c(Cl)c1)NCCCCCN1CCCN(C(=O)Nc2cccc(F)c2)CC1`, the XC50 stood at 0.757 µM. The result for `CC(=NNC(S)=Nc1ccccc1Cl)c1ccccn1` reads 0.0803 µM. The result for `COc1cc2nc(Nc3ccc4c(ccn4Cc4ccccc4)c3)nc(Nc3ccc4c(ccn4Cc4ccccc4)c3)c2cc1OC` reads 0.647 µM; that for `CCCCCc1cc(O)c2c(c1)OC(C)(C)CC2C1=CCN(Cc2cnc3ccccc3c2)CC1` (configuration not stated), 0.276 µM; that for `CC[C@H](NC(=O)c1ccc(NC(=O)OC(C)(C)C)cc1)C(=O)N[C@@H](CO)C(=O)NCCCCc1ccccc1`, 0.83 µM.

The compound `Cc1ccc(C)c2c1[nH]c1ccc(C3=NCCN3)cc12` gave an XC50 of 0.497 µM. In turn, `CC(=O)Nc1ncc(C(=O)Nc2ccc(-c3cccc(-c4nc5cc(C(F)(F)F)ccc5[nH]4)c3)cc2)s1` returned an XC50 of 0.26 µM. The result for `COc1cc(NC2=NS(=O)(=O)c3cc(Cl)ccc3N2C)cc(OC)c1OC` reads 0.42 µM.

Compound `COc1cc2nc(NCCc3ccccc3)nc(N(C)Cc3ccccc3)c2cc1OC` gave an XC50 of 0.831 µM.

For the compound `CC(Cc1ccc(Oc2ccccc2)cc1)NCC(O)c1cccc(C(F)(F)F)c1` (configuration not stated), the XC50 stood at 0.674 µM.

As for `CN1CCOc2ccc(Nc3nnc(-c4cccc(-c5cccnc5)c4)o3)cc2C1`, the XC50 was 0.104 µM. To `Oc1ccccc1CN1CCC(CCOC(c2ccccc2)c2ccc(Cl)cc2)CC1` (configuration not stated) belongs 0.743 µM; to `c1ccc2c(c1)CN(Cc1cc3ccccc3[nH]1)CC1(CCN(Cc3c[nH]c4cnccc34)CC1)O2`, 0.306 µM; to `CCCC(=O)Nc1ccc(Nc2nc(C)cc(N3CCCC3)n2)cc1`, 1.49 µM. To `CC(C)c1cc(N)c2cc(NC(=O)COCC(=O)Nc3ccc4nc(C(C)C)cc(N)c4c3)ccc2n1` belongs 0.216 µM; to `COc1cc(Nc2nccc(N3CCC(NC(=O)c4cc5ccccc5s4)C3)n2)cc(OC)c1OC` (configuration not stated), 0.786 µM; to `O=C(COc1ccc(F)cc1)NC1CCN(c2ccnc3cc(Cl)ccc23)C1` (configuration not stated), 0.265 µM.

The compound `O=C(/C=C/c1cccc(Cl)c1)N1CCC(C(O)CN2CCC3(CC2)CN(C(=O)/C=C/c2cccc(Cl)c2)c2ccccc23)CC1` (configuration not stated) had an XC50 of 0.892 µM. To `O=C(c1cc2c(s1)-c1cccc(Cl)c1SC2)N1CCN(c2ccncc2)CC1` belongs 1.01 µM; to `CCN(CC)CCOC(=O)C(OC)(c1ccccc1)c1ccccc1`, 1.02 µM. To `O=C(Nc1cccc(C(F)(F)F)c1)Nc1cc(F)c(F)cc1Cl` belongs 1.96 µM; to `O=C(/C=C/c1ccccc1Cl)NC1CCC(CN2CCC(c3c[nH]c4ccncc34)CC2)CC1` (configuration not stated), 0.334 µM.

Consider `COc1ccc2ncc(F)c(CCN3C4CCC3CC(NCc3ccc5c(c3)OCCO5)C4)c2n1` (configuration not stated), for which the XC50 is 0.225 µM. To `Fc1ccc(CNc2ncc(-c3ccsc3)c(-c3nccs3)n2)cc1` belongs 0.0721 µM; to `N=C(N)Nc1nc(-c2cc(NC(=O)C(F)(F)F)cc([N+](=O)[O-])c2)cs1`, 0.781 µM; to `O=C(NC1CC1)c1ccc2cc(C(=O)N3Cc4ccccc4C(c4ccccc4)C3)ccc2c1` (configuration not stated), 0.91 µM. As for `CS(=O)(=O)c1ccc(CNCc2cccc(-c3cccc(-c4nc5cc(C(F)(F)F)ccc5[nH]4)c3)c2)cc1`, the XC50 stood at 0.182 µM. `COc1ccc(C(=O)Nc2ccc(Cl)cc2C(=O)Nc2ccncc2)cc1` displayed an XC50 of 0.822 µM. The result for `Cc1ccc(C(C(=O)Nc2ccc(N3CCNCC3)c(Cl)c2)c2ccccc2)cc1` (configuration not stated) reads 0.843 µM.

As to `Clc1cccnc1N1CCN(c2ncccc2Cl)CC1`, the XC50 was found to be 0.147 µM. The result for `Cc1[nH]c2ccc(O)cc2c1C1CCN(CC2CCN(C(=O)/C=C/c3ccc(Cl)c(Cl)c3)CC2)CC1` reads 0.998 µM. To `CCOC(=O)c1c(C)n(C2CCCCC2)c2cc(Br)c(O)cc12` belongs 0.815 µM; to `N#Cc1cc(C(=O)c2cc(Cl)ccc2O)cn(-c2cc(Cl)cc(Cl)c2)c1=O`, 0.849 µM. The compound `CCCCCCNC[C@@H](O)[C@H](Cc1ccccc1)NC(=O)c1cc(NCC)cc(N2CCCCS2(=O)=O)c1` yielded an XC50 of 0.995 µM. To `FC(F)(F)c1ccc2[nH]c(-c3ccc(-c4cccc(CNCc5cnn(-c6ccccc6)n5)c4)s3)nc2c1` belongs 0.329 µM; to `CC(C)c1ccc(CN2CCC(CNC(=O)c3cc(-c4cccc(Cl)c4)cs3)C2)cc1` (configuration not stated), 0.752 µM.

`CC(C)(C)c1cc(C(=O)N2CCN(c3ncccc3C(F)(F)F)CC2)n(Cc2ccccc2)n1` displayed an XC50 of 0.251 µM. The result for `CC[C@H](C)CNC(=O)c1ccc(-c2cccc(CN3CCC(N4CCCC4)CC3)c2)nc1` reads 0.787 µM; that for `Cc1cc(C)c(-c2n[nH]c3c2C(c2cccc(Cl)c2)N(Cc2ccco2)C3=O)c(O)c1` (configuration not stated), 1.01 µM; that for `COc1ccc(C(=O)Nc2ccc3oc(-c4ccc(C(F)(F)F)cc4)cc3c2)cc1CCCN(C)C`, 0.698 µM.

Compound `CC1CNC(c2cccc(NC(=O)Nc3cccc(C4=NC(C)CN4)c3)c2)=N1` (configuration not stated) yielded an XC50 of 0.359 µM.
